In patent publication EP4703357A1, “TRIAZOLYL-CONTAINING COMPOUNDS” (Chia Tai Tianqing Pharmaceutical Group Co., Ltd., priority 2023, dated 2024):
Read-outs that look alike come from different tables or passages of the source.

Columns and labels:
Jurkat cells = test: Inhibitory activity on Jurkat cell proliferation (CCK-8); format: cell-based; details: Homo sapiens, 72 h incubation
Experimental: (§1) Jurkat cells in a good growth state were collected into a centrifuge tube, adjusted to a cell density of 5 × 10^4 cells/mL, and seeded in a 96-well plate (100 µL/well). The cells were incubated overnight in a cell incubator. Compounds were added using a nanoliter pipettor such that the final concentrations of the compounds were 1000 nM-0.46 nM (the addition was performed in duplicate). Meanwhile, a control was set. After another 72 h of incubation in the cell incubator, the assay reagent CCK-8 (manufacturer: Dojindo Laboratories, Beijing; 10 µL/well) was added. After 2 h of incubation in the cell incubator, absorbance was measured at 450 nm on an Envision microplate reader. A four-parameter analysis was performed, a dose-response curve was fit, and IC50 was calculated.

OCI-LY10 cells = test: Inhibitory activity on OCI-LY10 cell proliferation (CCK-8); format: cell-based; details: Homo sapiens, 72 h incubation
Experimental: as §1, with “OCI-LY10 cells” for “Jurkat cells”, “of 9” for “of 5”

[1] = In vitro liver microsomal stability, mouse; format: in vitro ADME; details: mouse liver microsome 0.5 mg/mL, NADPH, 37 °C, 1 h
Experimental: (§2) Liver microsome incubation samples were prepared by mixing a PBS buffer (pH = 7.4), a liver microsome solution (0.5 mg/mL), a test compound, and an NADPH + MgCl2 solution, and incubated at 37 °C and 300 rpm for 1 h. Zero-hour samples were prepared by mixing a PBS buffer (pH = 7.4), a liver microsome solution (0.5 mg/mL), and a test compound. An acetonitrile solution containing an internal standard was added to the samples, and supernatants were prepared by protein precipitation, diluted, and then assayed by LC/MS/MS. Table 17. In vitro metabolic stability of related compounds in liver microsomes of various species

[2] = In vitro liver microsomal stability, human; format: in vitro ADME; details: human liver microsome 0.5 mg/mL, NADPH, 37 °C, 1 h
Experimental: as §2

Mouse pharmacokinetics [3] = format: in vivo; details: ICR, plasma, po, 3 mg/kg, Mice administered intragastrically 3 mpk; for AUC(0-t): read-out: AUC (0-24)
Experimental: ICR mice weighing 18-22 g were randomized into groups of 9 mice per group after 3-5 days of acclimatization and then administered intragastrically at a dose of 3 mg/kg.
Plasma samples to be tested were prepared by taking blood from the orbit at time points of 15 min, 30 min, 1 h, 2 h, 4 h, 6 h, 8 h, 10 h, and 24 h.
20 µL of each plasma sample to be tested and a standard curve sample were taken, and an acetonitrile solution containing an internal standard was added. A supernatant was obtained by protein precipitation, diluted, and then assayed by LC/MS/MS.
Pharmacokinetic parameters were fitted using a non-compartmental model.

Mouse pharmacokinetics [4] = format: in vivo, ICR mice; details: ICR, plasma; for AUC(0-t): read-out: AUC (0-24)
[5] = 1 mg/kg, Mice administered by single intravenous injection 1 mpk
[6] = po, 3 mg/kg, Mice administered intragastrically 3 mpk

Compound	IC50 (Jurkat cells) [nM]	IC50 (OCI-LY10 cells) [nM]	Mouse liver microsome Residuals at 60 min (%) [1] [%]	Human liver microsome Residuals at 60 min (%) [2] [%]	further results
NC(=O)/C(=C/n1cnc(-c2cc(C3CC3)nc(C(F)(F)F)c2)n1)c1cccnc1F [Compound 32]	≤ 20	≤ 40	95.08	100.32	
NC(=O)/C(=C/n1cnc(-c2cc(C3CC3)nc(C(F)(F)F)c2)n1)c1cnc2ccccc2c1 [Compound 26]	≤ 20	≤ 40	90.27	96.64	
NC(=O)/C(=C/n1cnc(-c2cc(C3CC3)nc(C(F)(F)F)c2)n1)c1ccc(NCC(F)(F)F)nc1 [Compound 40]	≤ 20	≤ 40			
NC(=O)/C(=C/n1cnc(-c2cc(C3CC3)nc(C(F)(F)F)c2)n1)c1cnc(NCC(F)(F)F)nc1 [Compound 16]	≤ 20	≤ 40	90.60	88.75	
C[C@@H](Nc1ncc(/C(=C\n2cnc(-c3cc(C4CC4)nc(C(F)(F)F)c3)n2)C(N)=O)cn1)C(F)(F)F [Compound 17]	≤ 20	≤ 40	95.11	93.92	
NC(=O)/C(=C/n1cnc(-c2cc(C3CC3)nc(C(F)(F)F)c2)n1)c1cccc(F)n1 [Compound 37]	≤ 20	≤ 40			
NC(=O)/C(=C/n1cnc(-c2cc(C3CC3)nc(C(F)(F)F)c2)n1)c1cncnc1 [Compound 13]	≤ 20	≤ 40	91.15	93.23	
NC(=O)/C(=C/n1cnc(-c2cc(C3CC3)nc(C(F)(F)F)c2)n1)c1ccc(NCC(F)F)nc1 [Compound 41]	≤ 20	≤ 40			
NC(=O)/C(=C/n1cnc(-c2cc(C3CC3)nc(C(F)(F)F)c2)n1)c1ccc2ncccc2c1 [Compound 57]	≤ 20	≤ 40			
NC(=O)/C(=C/n1cnc(-c2cc(C(F)(F)F)nc(C(F)(F)F)c2)n1)c1cnc(NCC(F)F)nc1 [2(2-A)]	≤ 20	≤ 40	87.82	92.23	Cmax (Mouse pharmacokinetics [3]): 483 ng/mL; Tmax (Mouse pharmacokinetics [3]): 3 h; half-life (Mouse pharmacokinetics [3]): 2.57 h; AUC(0-t) (Mouse pharmacokinetics [3]): 2730 ng·h/mL; AUC(0-inf) (Mouse pharmacokinetics [4]; [5]): 879 ng·h/mL; clearance (Mouse pharmacokinetics [4]; [5]): 19 mL/min/kg; half-life (Mouse pharmacokinetics [4]; [5]): 1.26 h; AUC(0-t) (Mouse pharmacokinetics [4]; [5]): 874 ng·h/mL; AUC(0-inf) (Mouse pharmacokinetics [4]; [6]): 2730 ng·h/mL
NC(=O)/C(=C/n1cnc(-c2cc(C3CC3)nc(C(F)(F)F)c2)n1)c1ccc(F)nc1 [Compound 39]	≤ 20	≤ 40	89.18	106.91	
N#Cc1cncc(/C(=C\n2cnc(-c3cc(C4CC4)nc(C(F)(F)F)c3)n2)C(N)=O)c1 [Compound 30]	≤ 20	≤ 40	89.94	98.75	
NC(=O)/C(=C/n1cnc(-c2cc(C3CC3)nc(C(F)(F)F)c2)n1)c1cnc(NCC(F)F)nc1 [Compound 14]	≤ 20	≤ 40	83.14	80.48	
NC(=O)/C(=C/n1cnc(-c2cc(C(F)(F)F)nc(C(F)(F)F)c2)n1)c1cnc(NCC(F)(F)F)nc1 [Compound 4]	≤ 20	≤ 40	93.27	100.33	
NC(=O)/C(=C/n1cnc(-c2cc(C(F)(F)F)nc(C(F)(F)F)c2)n1)c1ccc(NCC(F)F)nc1 [Compound 54]	≤ 20	≤ 40			
CC(F)(F)CNc1ncc(/C(=C\n2cnc(-c3cc(C4CC4)nc(C(F)(F)F)c3)n2)C(N)=O)cn1 [15(15-A)]	≤ 20	≤ 40	88.38	87.55	Cmax (Mouse pharmacokinetics [3]): 599 ng/mL; Tmax (Mouse pharmacokinetics [3]): 3 h; half-life (Mouse pharmacokinetics [3]): 3.48 h; AUC(0-t) (Mouse pharmacokinetics [3]): 4600 ng·h/mL; AUC(0-inf) (Mouse pharmacokinetics [4]; [5]): 1630 ng·h/mL; clearance (Mouse pharmacokinetics [4]; [5]): 10.2 mL/min/kg; half-life (Mouse pharmacokinetics [4]; [5]): 1.34 h; AUC(0-t) (Mouse pharmacokinetics [4]; [5]): 1620 ng·h/mL; AUC(0-inf) (Mouse pharmacokinetics [4]; [6]): 4650 ng·h/mL
NC(=O)C(=Cn1cnc(-c2cc(C(F)(F)F)nc(C(F)(F)F)c2)n1)c1cncnc1 [Compound 1]	≤ 20	≤ 40	97.97	101.38	
NC(=O)/C(=C/n1cnc(-c2cc(C3CC3)nc(C(F)(F)F)c2)n1)c1cnc2cccnc2c1 [Compound 33]	≤ 20	≤ 40	98.21	104.79	
NC(=O)/C(=C/n1cnc(-c2cc(C(F)(F)F)nc(C(F)(F)F)c2)n1)c1ccc(C(F)(F)F)nc1 [Compound 53]	≤ 20	≤ 40			
NC(=O)/C(=C/n1cnc(-c2cc(C3CC3)nc(C(F)(F)F)c2)n1)c1ccc(C(F)(F)F)nc1 [Compound 60]	≤ 20	≤ 40			
N#Cc1cncc(/C(=C\n2cnc(-c3cc(C(F)(F)F)nc(C(F)(F)F)c3)n2)C(N)=O)c1 [Compound 10]	≤ 20	≤ 40	93.99	95.75	
NC(=O)/C(=C/n1cnc(-c2cc(C(F)(F)F)nc(C(F)(F)F)c2)n1)c1ccc(NCC(F)(F)F)nc1 [Compound 46]	≤ 20	≤ 40			
NC(=O)/C(=C/n1cnc(-c2cc(C3CC3)nc(C(F)(F)F)c2)n1)c1ccc2cccnc2c1 [59(59-A)]	≤ 20	≤ 40			
NC(=O)/C(=C/n1cnc(-c2cc(C3CC3)nc(C(F)(F)F)c2)n1)c1ccnc(F)c1 [Compound 36]	≤ 20	≤ 40			
NC(=O)/C(=C/n1cnc(-c2cc(C3CC3)nc(C(F)(F)F)c2)n1)c1ccncc1 [Compound 43]	≤ 20	≤ 40			
C[C@@H](Nc1ncc(/C(=C\n2cnc(-c3cc(C(F)(F)F)nc(C(F)(F)F)c3)n2)C(N)=O)cn1)C(F)(F)F [Compound 5]	≤ 20	≤ 40	99.03	97.64	
